In patent US6875743B1, “Cell adhesion inhibitors” (Biogen, Inc., priority 1996, dated 2005):
Numbered stars: 1 amine (or outer) side, 2 acyl side, 3 side chain; on linkers, the order of the positions; unused ones are H or OH. Square brackets hold non-standard residues; d marks the D form. Peptide text beside a SMILES is read from it. * marks the point of attachment. X2 = Cc1ccccc1NC(=O)Nc1ccc(CN*)cc1; X4 = COc1nc(CC(=O)[*:2])ccc1N[*:1]; X1 = O=C(Cc1ccc(N[*:1])cc1)[*:2]; NH(2-Me-phenyl) = Cc1ccccc1N*; Tic = O=C(O)[CH]1Cc2ccccc2CN1; Chg = N[CH](C(=O)O)C1CCCCC1; Nva = CCC[CH](N)C(=O)O; PhAc = O=C(Cc1ccccc1)*; Boc = CC(C)(C)OC(=O)*; Aib = CC(C)(N)C(=O)O; CO = O=C([*:1])[*:2]; NHPh = c1ccc(N*)cc1; Bn = c1ccc(C*)cc1

target: T1, VLA4 (Homo sapiens, UniProt P05556+P13612); experiment: Inhibition of VLA4-dependent adhesion to BSA-CS1; format: cell-based; details: not given
T1 construct: endogenous in cells; host or cells: Ramos cells
T1 sequence (P13612 34-1032): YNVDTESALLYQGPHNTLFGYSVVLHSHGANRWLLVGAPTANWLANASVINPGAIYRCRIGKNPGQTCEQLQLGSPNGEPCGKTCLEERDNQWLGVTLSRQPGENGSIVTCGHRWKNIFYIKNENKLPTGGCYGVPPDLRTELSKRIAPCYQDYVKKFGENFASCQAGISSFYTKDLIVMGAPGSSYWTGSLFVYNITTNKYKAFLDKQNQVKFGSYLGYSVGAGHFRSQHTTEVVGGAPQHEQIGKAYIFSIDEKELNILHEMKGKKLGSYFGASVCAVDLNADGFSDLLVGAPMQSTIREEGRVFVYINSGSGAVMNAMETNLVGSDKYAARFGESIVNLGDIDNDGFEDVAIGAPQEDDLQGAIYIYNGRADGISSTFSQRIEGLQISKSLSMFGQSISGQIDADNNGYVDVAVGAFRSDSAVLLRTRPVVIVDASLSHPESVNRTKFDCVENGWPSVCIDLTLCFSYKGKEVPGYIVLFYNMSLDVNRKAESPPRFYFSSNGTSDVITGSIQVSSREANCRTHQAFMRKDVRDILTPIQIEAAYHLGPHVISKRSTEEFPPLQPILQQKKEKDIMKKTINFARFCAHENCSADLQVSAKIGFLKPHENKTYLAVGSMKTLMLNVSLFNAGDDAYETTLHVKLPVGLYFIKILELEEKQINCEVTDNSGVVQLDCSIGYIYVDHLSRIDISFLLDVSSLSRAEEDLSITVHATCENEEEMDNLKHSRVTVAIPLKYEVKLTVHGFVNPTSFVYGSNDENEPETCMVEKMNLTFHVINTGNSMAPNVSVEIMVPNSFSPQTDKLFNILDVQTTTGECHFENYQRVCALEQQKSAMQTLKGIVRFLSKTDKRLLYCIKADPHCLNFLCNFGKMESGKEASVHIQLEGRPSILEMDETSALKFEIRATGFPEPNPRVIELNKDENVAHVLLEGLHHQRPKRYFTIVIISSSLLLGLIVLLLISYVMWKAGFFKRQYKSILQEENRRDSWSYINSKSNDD
T1 sequence (P05556 21-798): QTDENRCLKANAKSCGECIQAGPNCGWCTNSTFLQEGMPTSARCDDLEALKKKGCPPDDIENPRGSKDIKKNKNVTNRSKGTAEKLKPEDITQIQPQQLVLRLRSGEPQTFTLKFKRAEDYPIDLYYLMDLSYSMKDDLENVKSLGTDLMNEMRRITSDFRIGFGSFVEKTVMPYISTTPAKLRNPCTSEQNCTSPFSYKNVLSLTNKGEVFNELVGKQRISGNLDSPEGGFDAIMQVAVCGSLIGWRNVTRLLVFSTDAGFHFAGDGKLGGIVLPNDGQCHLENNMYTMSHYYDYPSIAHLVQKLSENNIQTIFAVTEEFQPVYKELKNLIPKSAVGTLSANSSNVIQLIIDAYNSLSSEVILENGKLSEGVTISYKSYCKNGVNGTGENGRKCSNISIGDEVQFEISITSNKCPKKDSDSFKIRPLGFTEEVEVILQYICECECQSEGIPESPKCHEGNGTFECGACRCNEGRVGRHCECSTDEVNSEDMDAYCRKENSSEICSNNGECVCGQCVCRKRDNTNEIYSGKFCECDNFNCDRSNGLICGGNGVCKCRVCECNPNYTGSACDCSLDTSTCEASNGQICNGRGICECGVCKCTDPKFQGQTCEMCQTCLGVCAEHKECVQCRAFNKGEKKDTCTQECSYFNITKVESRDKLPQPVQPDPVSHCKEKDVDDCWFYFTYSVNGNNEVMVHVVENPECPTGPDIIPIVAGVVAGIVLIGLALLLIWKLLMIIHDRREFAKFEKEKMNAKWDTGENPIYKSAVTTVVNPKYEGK

SMILES | IC50 [nM]
Cc1ccccc1NC(=O)Nc1ccc(CC(=O)N[C@@H](CC(C)C)C(=O)N[C@@H](CC(=O)O)C(=O)N[C@H](C(=O)N2CCC[C@H]2C(=O)N[C@@H](CO)C(=O)N[C@H](C(=O)O)[C@@H](C)O)C(C)C)cc1 [Compound 338] ({NH(2-Me-phenyl)-CO}-[X1]LDVPST-OH) | < 50

same assay, conditions: binding of BCECF-labelled Ramos cells to BSA-CS1 coated wells, 2 mM MnCl2; read-out: IC50

SMILES | IC50 [nM]
CCCCCCNC(=O)C(NC(=O)C(CC(=O)O)NC(=O)C(CC(C)C)NC(=O)C1CCc2ccccc2N1)C(C)C (centres unmarked) [Compound 114] | > 10000
CC(C)C[C@H](NC(=O)CC1CC2CCC1C2)C(=O)N[C@@H](CC(=O)O)C(=O)N[C@H](C(=O)O)C(C)C (some centres unmarked) [Compound 390] | > 10000
Cc1ccccc1NC(=O)Nc1ccc(CC(=O)N[C@@H](CC(C)C)C(=O)N[C@@H](CC(=O)O)C(=O)N[C@H](C(N)=O)[C@@H](C)O)cc1 [Compound 235] | < 50
CSCC[C@H](NC(=O)Cc1ccc(NC(=O)Nc2ccccc2C)cc1)C(=O)N[C@@H](CC(=O)O)C(=O)N[C@@H](Cc1c[nH]c2ccccc12)C(N)=O [Compound 228] | < 50
CC(C)CC(NC(=O)CCCc1ccccc1)C(=O)NC(CC(=O)O)C(=O)NCC1CCCCC1 (centres unmarked) [Compound 25] | > 10000
CC[C@H](C)[C@H](NC(=O)CCc1ccc(O)cc1)C(=O)N[C@H](CC(=O)O)C(=O)NCC(C)C [Compound 16] | > 10000
CC(C)C[C@H](NC(=O)c1ccc2ccccc2n1)C(=O)N[C@@H](CC(=O)O)C(=O)N[C@H](C(N)=O)C(C)C [Compound 178] | > 10000
CC(C)CC(NC(=O)Cc1ccc(NC(=O)Nc2ccccc2)cc1)C(=O)NC(CC(=O)O)C(=O)NC(C(=O)N1CCCC1C(N)=O)C(C)C (centres unmarked) [Compound 201] ({NHPh-CO}-[X1]LDVP-NH2; configuration not given here) | 50 to 10000
CC(C)C[C@H](NC(=O)Cc1ccc(NC(=O)Nc2ccccc2)cc1)C(=O)N[C@@H](CC(=O)O)C(=O)N[C@H](C(=O)O)C(C)C [Compound 203] | < 50
CC(C)C[C@H](NC(=O)Cc1ccc(NC(=O)Nc2ccccc2)cc1)C(=O)N[C@@H](CC(=O)O)C(=O)N[C@H](C(=O)N1CCC[C@H]1C(N)=O)C(C)C [Compound 208] ({NHPh-CO}-[X1]LDVP-NH2) | < 50
Cc1ccccc1NC(=O)Nc1ccc(CC(=O)N[C@@H](CCC(=O)O)C(=O)N[C@@H](CC(=O)O)C(=O)N[C@H](CC(C)C)C(N)=O)cc1 [Compound 266] | < 50
CC(C)C[C@H](NC(=O)COc1ccc2ccccc2c1)C(=O)N[C@@H](CC(=O)O)C(=O)N[C@H](C(=O)O)C(C)C [Compound 395] | > 10000
CC(C)C[C@H](NC(=O)c1ccc2c(c1)OCO2)C(=O)N[C@@H](CC(=O)O)C(=O)N[C@H](C(=O)O)C(C)C [Compound 406] | > 10000
Cc1ccccc1NC(=O)Nc1ccc(CC(=O)N[C@H](C(=O)N[C@@H](CC(=O)O)C(=O)N[C@@H](CC(C)C)C(N)=O)[C@@H](C)O)cc1 [Compound 253] | < 50
Cc1ccccc1NC(=O)Nc1ccc(CC(=O)N[C@@H](CCC(N)=O)C(=O)N[C@@H](CC(=O)O)C(=O)N[C@H](CC(C)C)C(N)=O)cc1 [Compound 300] | < 50
COc1nc(CC(=O)N[C@@H](CC(C)C)C(=O)N[C@@H](CC(=O)O)C(=O)N[C@H](C(=O)N2CCC[C@H]2C(=O)O)C(C)C)ccc1NC(=O)Nc1ccccc1C [Compound 4] ({NH(2-Me-phenyl)-CO}-[X4]LDVP-OH) | < 50
Cc1ccccc1NC(=O)Nc1ccc(CC(=O)N[C@@H](CC(C)C)C(=O)N[C@@H](CC(=O)O)C(=O)N[C@H](C(N)=O)C(C)C)cc1 [Compound 232] | < 50
CC(C)CC(NC(=O)CCc1ccc(O)cc1)C(=O)NC(CC(=O)O)C(=O)NCC1CCCCC1 (centres unmarked) [Compound 14] | > 10000
CC(C)CC(NC(=O)C(Cc1ccc(O)cc1)NC(=O)OC(C)(C)C)C(=O)NC(CC(=O)O)C(=O)NC(C(=O)O)C(C)C (centres unmarked) [Compound 66] (Boc-YLDV-OH; configuration not given here) | > 10000
CC(C)C[C@H](NC(=O)c1cc2ccccc2cn1)C(=O)NC(Cc1nnn[nH]1)C(=O)N[C@H](C(=O)O)C(C)C (some centres unmarked) [Compound 10] | > 10000
COc1ccc2cc(C(C)C(=O)N[C@@H](CC(C)C)C(=O)N[C@@H](CC(=O)O)C(=O)N[C@H](C(=O)O)C(C)C)ccc2c1 (some centres unmarked) [Compound 394] | > 10000
COC(=O)C1CCCN1C(=O)C(NC(=O)C(CC(=O)O)NC(=O)C(CC(C)C)NC(=O)Cc1ccccc1)C(C)C (centres unmarked) [Compound 35] | 50 to 10000
CC(C)C[C@H](NC(=O)Cc1ccc(NC(=O)Nc2ccccc2)cc1)C(=O)N[C@@H](CC(=O)O)C(=O)N[C@@H](C(=O)N1CCC[C@H]1C(N)=O)C(C)C [Compound 211] ({NHPh-CO}-[X1]LD[dV]P-NH2) | 50 to 10000
CNC(=O)C(C)(C)NC(=O)[C@H](CC(=O)O)NC(=O)[C@H](CC(C)C)NC(=O)c1ccc2ccccc2n1 [Compound 185] | > 10000
COC(=O)[C@@H](NC(=O)[C@H](CC(=O)O)N1CCC(NC(=O)OCc2ccccc2)C1=O)C(C)C (some centres unmarked) [Compound 334] | > 10000
Cc1ccccc1NC(=O)Nc1ccc(CC(=O)NC(CCC(N)=O)C(=O)NC(CC(=O)O)C(=O)NC(CO)C(N)=O)cc1 (centres unmarked) [Compound 307] | < 50

SMILES | IC50 [nM]
Cc1ccccc1NC(=O)Nc1ccc(CC(=O)N[C@H](C(=O)N[C@@H](CC(=O)O)C(=O)N[C@H](CO)C(N)=O)[C@@H](C)O)cc1 [Compound 262] | < 50
CSCC[C@H](NC(=O)Cc1ccc(NC(=O)Nc2ccccc2C)cc1)C(=O)N[C@@H](CC(=O)O)C(=O)N[C@@H](CCC(=O)O)C(N)=O [Compound 223] | < 50
Cc1ccccc1NC(=O)Nc1ccc(CC(=O)N2CCC2C(=O)N[C@@H](CC(=O)O)C(=O)N[C@H](CC(C)C)C(=O)O)cc1 (some centres unmarked) [Compound 412] | 50 to 10000
CCCC(NC(=O)C(CC(=O)O)NC(=O)C(CC(C)C)NC(=O)Cc1ccccc1)C(=O)NC (stereo not drawn) [Compound 51] (PhAc-Leu-Asp-[Nva]-NHMe; configuration not given here) | > 10000
Cc1ccccc1NC(=O)Nc1ccc(CC(=O)NC(CC(C)C)C(=O)N2CN(Cc3ccc4c(c3)OCO4)C(=O)C[C@H]2C(=O)O)cc1 (mixture of isomers) [Compound 363] | > 10000
CC(C)C[C@H](NC(=O)N1c2ccccc2CCc2ccccc21)C(=O)N[C@@H](CC(=O)O)C(=O)N[C@H](C(=O)O)C(C)C [Compound 408] | > 10000
CSCC[C@H](NC(=O)Cc1ccc(NC(=O)Nc2ccccc2C)cc1)C(=O)N[C@@H](CC(=O)O)C(=O)N[C@H](CO)C(N)=O [Compound 229] | < 50
Cc1ccccc1NC(=O)Nc1ccc(CC(=O)N[C@@H](CC(C)C)C(=O)N[C@@H](CC(=O)O)C(=O)N[C@H](C(=O)N2CCC[C@H]2C(=O)N[C@@H](CO)C(=O)O)C(C)C)cc1 [Compound 337] ({NH(2-Me-phenyl)-CO}-[X1]LDVPS-OH) | < 50
CC(C)C[C@H](NC(=O)Nc1cnc2ccccc2n1)C(=O)N[C@@H](CC(=O)O)C(=O)N[C@H](C(=O)O)C(C)C [Compound 380] | > 10000
COC(=O)[C@@H](NC(=O)[C@H](CC(=O)O)NC(=O)[C@H](CC(C)C)NC(=O)Cc1ccccc1)[C@@H](C)OCc1ccccc1 [Compound 192] (PhAc-Leu-Asp-Thr(Bn)-OMe) | 50 to 10000
CC(C)C[C@H](NC(=O)c1cncc(C#Cc2ccccc2)c1)C(=O)N[C@@H](CC(=O)O)C(=O)N[C@H](C(=O)O)C(C)C [Compound 372] | > 10000
Cc1ccccc1NC(=O)Nc1ccc(CC(=O)N[C@@H](CC(C)C)C(=O)N[C@@H](CC(=O)O)C(=O)N[C@@H](CC(C)C)C(N)=O)cc1 [Compound 231] | < 50
Cc1ccccc1NC(=O)Nc1ccc(CC(=O)NC(CC(C)C)C(=O)NC(CC(=O)O)C(=O)NC(C(=O)O)c2ccccc2)cc1 (centres unmarked) [Compound 207] | 50 to 10000
Cc1ccccc1NC(=O)Nc1ccc(CC(=O)N[C@@H](CO)C(=O)N[C@@H](CC(=O)O)C(=O)N[C@@H](CC(C)C)C(N)=O)cc1 [Compound 276] | < 50
Cc1ccccc1NC(=O)Nc1ccc(CC(=O)N[C@@H](CO)C(=O)N[C@@H](CC(=O)O)C(=O)N[C@H](CCC(=O)O)C(N)=O)cc1 [Compound 283] | < 50
Cc1ccccc1NC(=O)Nc1ccc(CC(=O)N2CCC[C@H]2C(=O)N[C@@H](CC(=O)O)C(=O)N[C@H](C(N)=O)C(C)C)cc1 [Compound 243] | < 50
Cc1ccccc1NC(=O)Nc1ccc(CC(=O)N2CCC[C@H]2C(=O)N[C@@H](CCC(=O)O)C(=O)N[C@@H](CC(=O)O)C(N)=O)cc1 [Compound 312] | < 50
CCC(C)C(NC(=O)C(CC(=O)O)NC(=O)C(NC(=O)C1CCCN1)C(C)C)C(=O)NCc1ccc(NC(=O)Nc2ccccc2C)cc1 (centres unmarked) [Compound 343] (H-PVDI-X2; configuration not given here) | > 10000
CC(C)C[C@@H](NC(=O)Cc1ccc(NC(=O)Nc2ccccc2)cc1)C(=O)N[C@H](CC(=O)O)C(=O)N[C@@H](C(=O)N1CCC[C@@H]1C(N)=O)C(C)C [Compound 212] ({NHPh-CO}-[X1][dL][dD][dV][dP]-NH2) | 50 to 10000
CSCC[C@H](NC(=O)Cc1ccc(NC(=O)Nc2ccccc2C)cc1)C(=O)N[C@@H](CC(=O)O)C(=O)N[C@H](CCC(=O)O)C(N)=O [Compound 227] | < 50
CC(C)C(NC(=O)C(CC(=O)O)NC(=O)C(NC(=O)C1Cc2ccccc2CN1)C1CCCCC1)C(=O)O (centres unmarked) [Compound 84] (H-[Tic][Chg]DV-OH; configuration not given here) | > 10000
CSCC[C@H](NC(=O)Cc1ccc(NC(=O)Nc2ccccc2C)cc1)C(=O)N[C@@H](CC(=O)O)C(=O)N[C@H](CC(N)=O)C(N)=O [Compound 226] | < 50
Cc1c(C(=O)N[C@@H](CC(C)C)C(=O)N[C@@H](CC(=O)O)C(=O)N[C@H](C(=O)O)C(C)C)cnn1-c1ccccc1 [Compound 369] | > 10000
Cc1ccccc1NC(=O)Nc1ccc(CC(=O)N[C@@H](CO)C(=O)N[C@@H](CC(=O)O)C(=O)N[C@H](CC(C)C)C(N)=O)cc1 [Compound 278] | < 50
Cc1ccccc1NC(=O)Nc1ccc(CC(=O)N[C@@H](CC(C)C)C(=O)N[C@@H](CC(=O)O)C(=O)N[C@H](CC(N)=O)C(N)=O)cc1 [Compound 237] | < 50
CNC(=O)C(C)(C)NC(=O)[C@H](CC(=O)O)NC(=O)[C@H](CC(C)C)NC(=O)Cc1ccccc1 [Compound 351] (PhAc-Leu-Asp-[Aib]-NHMe) | > 10000
